Reference: patent US20030162783A1 (priority 1999, published 2003)

Tests used:
[1] = target: T1, NMDA receptor glycine site (Rattus norvegicus, UniProt P35439); assay: Test A: Inhibition of binding of [3H]-MDL105,519 to brain membranes; conditions: [3H]MDL105,519 1.2 nM, brain membranes (rat and human membranes described; table does not say which)
T1 construct: brain membranes bearing the receptor; tissue Analytical Biological Services Inc; host or cells: rat brain membranes (cerebral cortex and hippocampus, male Sprague Dawley rats)
Source text: Test A: Inhibition of Binding of [^3H]-MDL105,519:
Binding of compounds to the NMDA receptor glycine site may be assessed by measuring the ability of test compounds to inhibit the binding of tritiated MDL105,519 to brain membranes bearing the receptor.
Briefly, fresh brain tissue including cerebral cortex and hippocampus from male Sprague Dawley rats was homogenized in 0.32 M sucrose and centrifuged at low speed to separate cellular membranes from other cellular components. The membranes were then washed 3 times using deionized water, followed by treatment with 0.04% Triton X-100. Finally, membranes were washed six times in 50 mM Tris citrate buffer, pH 7.4, and frozen at −80° C. until use.
[^3H]MDL105,519 (72 Ci/mmol) was purchased from Amersham. Cold MDL105,519 was purchased from Sigma/RBI. […] On the day of the experiment, brain membranes were thawed at room temperature and suspended in 50 mM tris acetate buffer, pH 7.4 (“TAB”). Seventy-five micro grams per milliliter protein (by using the BioRad dye) were used for competition binding. The experiments were carried out using 96-well plates. […] Non specific binding was determined by using 100 μM of unlabeled MDL105,519. […] After incubation, unbound [^3H]MDL105,519 was removed by filtration onto GF/B Unifilter plates using a Packard harvester. Filters were washed four times with ice cold TAB (total of 1.2 mL buffer). The plates were dried overnight at room temperature and bound radioactivity was measured on a Packard TopCount after the addition of 45 μL per well of the MICROSCINT O.
Human brain membranes were obtained from Analytical Biological Services Inc., and assays were performed as described for rat membranes.
Data was analyzed using a Microsoft Excel spreadsheet and GraphPad Prizm software and potency of compounds is expressed as the Ki (nM).

[2] = test system: formalin-induced nociceptive behaviors in rats; assay: Test B: Formalin test (formalin-induced nociceptive behaviors, paw flinches); type: in vivo, rat; conditions: dosed three hours prior to formalin; for Test B First phase Dose (% Inh.): % inhibition of nociceptive response: first phase (0-5 min); for Test B Second phase Dose (% Inh.): % inhibition of nociceptive response: second phase (20-35 min)
Protocol: In the test, two distinctive phases of formalin-induced behaviors are observed. A first phase response, caused by acute nociception to the noxious chemical (formalin) injected into the paw, occurs between zero and five minutes. […] After the quiescent period a second phase response, caused by sensitization of the central neurons in the dorsal horn, occurs after 15 minutes and lasts up to 60 minutes. Sensitization of the central neurons in the spine augments a noxious afferent input and causes a stronger pain barrage to be transmitted to the brain. Therefore, inhibition of the second phase response indicates a central mechanism of drug action.
The procedure for the formalin test is as follows: male rats are placed in a plexiglass chamber and observed for 30-45 min. to observe their baseline activity. Animals are either pretreated with vehicle or with different doses of a test compound. Animals are dosed with vehicle or test compound three hours prior to injection of 0.05 mL of sterile 1% formalin under the dorsal skin of a hind paw. The number of paw flinches (responses) during the first phase (0-5 min.) and the second phase (20-35 min.) are scored and recorded. Flinch response is compared with the mean score of a saline control group and calculated as percentage inhibition. […] First phase responses may be inhibited by compounds that act peripherally and by compounds that act centrally.
Student's t-test was used for statistical analysis to determine the significance of compound effects. Data are reported as a dose that yielded a % inhibition of a response.

[3] = test system: Chronic Constriction Injury (CCI) rats, thermal hyperalgesia; assay: Test C: Neuropathic pain model (Chronic Constriction Injury), thermal hyperalgesia paw-withdrawal; type: in vivo; conditions: Rattus norvegicus; for inhibition in vivo at 30 mg/kg/day / inhibition in vivo at 15 mg/kg/day: oral t.i.d., read-out: Test C (% Inh.): percent decrease in hyperalgesia at the MED; for minimal effective dose: po, 120 h, orally three times daily for 5 days, read-out: Test C MED (minimum effective dose)
Source text: Test C: Neuropathic Pain Model (Chronic Constriction Injury):
(Mean of vehicle group−Mean of compound group)/(Mean of vehicle group)×100

Structure (SMILES)	Ki [1] [nM]	inhibition in vivo at 30 mg/kg/day [3] [%]	minimal effective dose [3] [mg/kg/day]	inhibition in vivo at 15 mg/kg/day [3] [%]	also measured
O=c1c2ccc(Cl)cc2[nH]c2c(O)nn(Cc3ccncn3)c(=O)c12	513	–	–	–	–
CS(=O)(=O)O.O=c1c2ccc(Cl)cc2[nH]c2c(O)nn(Cc3ccncc3)c(=O)c12 [Ex. 1, 7-Chloro-4-hydroxy-2-(4-pyridylmethyl)-1,2,5,10-tetrahydropyridazino[4,5-b]quinoline-1,10-dione methanesulfonate]	–	71	30	–	Test B First phase Dose (% Inh.): % inhibition of nociceptive response ([2]; dose 70 (dose unit not given)): 70 (52%); Test B Second phase Dose (% Inh.): % inhibition of nociceptive response ([2]; dose 70 (dose unit not given)): 70 (57%)
CS(=O)(=O)O.O=c1c2ccc(Cl)cc2[nH]c2c(O)nn(Cc3cccnc3)c(=O)c12 [Ex. 2, 7-Chloro-4-hydroxy-2-(3-pyridylmethyl)-1,2,5,10-tetrahydropyridazino[4,5-b]quinoline-1,10-dione Methanesulfonate]	–	59	30	–	Test B First phase Dose (% Inh.): % inhibition of nociceptive response ([2]; dose 200 (dose unit not given)): 200 (74%); Test B Second phase Dose (% Inh.): % inhibition of nociceptive response ([2]; dose 200 (dose unit not given)): 200 (71%)
O=c1c2ccc(Cl)cc2[nH]c2c(O)nn(Cc3cc4ccccc4o3)c(=O)c12 [Ex. 4, 7-Chloro-4-hydroxy-2-benzo[d]furan-2-ylmethyl-1,2,5,10-tetrahydropyridazino[4,5-b]quinoline-1,10-dione]	–	44	30	–	–
O=c1c2ccc(Cl)cc2[nH]c2c(O)nn(Cc3ccnc4ccccc34)c(=O)c12 [Ex. 5, 7-Chloro-4-hydroxy-2-(quinolin-4-ylmethyl)-1,2,5,10-tetrahydropyridazino[4,5-b]quinoline-1,10-dione]	371	–	–	–	–
CS(=O)(=O)O.O=c1c2ccc(Cl)cc2[nH]c2c(O)nn(Cc3cnccn3)c(=O)c12 [Ex. 6, 7-Chloro-4-hydroxy-2-(pyrazin-2-ylmethyl)-1,2,5,10-tetrahydropyridazino[4,5-b]quinoline-1,10-dione methanesulfonate]	–	64	30	–	–
O=c1c2ccc(Cl)cc2[nH]c2c(O)nn(Cc3ccco3)c(=O)c12 [Ex. 9, 7-Chloro-4hydroxy-2-(furan-2-ylmethyl)-1 2,5,10-tetrahydropyridazino[4,5-b]quinoline-1,10-dione]	61	–	15	77	Test B First phase Dose (% Inh.): % inhibition of nociceptive response ([2]; dose 200 (dose unit not given)): 200 (56%); Test B Second phase Dose (% Inh.): % inhibition of nociceptive response ([2]; dose 200 (dose unit not given)): 200 (46%); melting point: > 265 °C
O=c1c2ccc(Cl)cc2[nH]c2c(O)nn(Cc3cccs3)c(=O)c12 [Ex. 11, 7-Chloro-4-hydroxy-2-(thien-2-ylmethyl)-1,2,5,10-tetrahydropyridazino[4,5-b]quinoline-1,10dione]	–	–	15	-17	–
O=c1c2ccc(Cl)cc2[nH]c2c(O)nn(Cc3ccsc3)c(=O)c12 [Ex. 12, 7-Chloro-4-hydroxy-2-(thien-3-ylmethyl)-1,2,5,10-tetrahydropyridazino[4,5-b]quinoline-1,10-dione]	–	–	15	17	–
O=c1c2ccc(Cl)cc2[nH]c2c(O)nn(Cc3cc4ccccc4s3)c(=O)c12 [Ex. 13, 7-Chloro-4-hydroxy-2-(benzo[b]thien-2-ylmethyl)-1,2,5,10-tetrahydropyridazino[4,5-b]quinoline-1,10-dione]	–	–	15	1	–
O=c1c2ccc(Cl)cc2[nH]c2c(O)nn(Cc3ncc[nH]3)c(=O)c12 [Ex. 15, 7-Chloro-4-hydroxy-2-(imidazol-2-ylmethyl)-1,2,5,10-tetrahydropyridazino[4,5-b]quinoline-1,10-dione]	103	–	–	–	–
